Values after ≈ are worked out from the molar mass of the structure shown. Where two headings read alike, the source gives them in different places.
How the values were obtained:
[1] = tested on: durch TNB (Trinitrobenzoesulfonsäure) ausgelösten Colitis der Ratte; assay: Histological proof of the anti-inflammatory effect in TNB-induced colitis of the rat; assay type: in vivo; conditions: 25 mg TNB rektal, 5 mg oral über Schlundsonde im Abstand von 8 Stunden, 3. - 21. Tag, TNB alone: Grad II - III
Method: (§1) Bei 10 Ratten (Körpermaße: 200-250 g) wurde durch rektale Instillation von 25 mg TNB (in 0,25 ml 30%iger ethanolischer Lösung) eine Colitis ausgelöst. Eine in gleicher Weise behandelte Gruppe von 10 Tieren erhielt vom 3. - 21. Tage nach der TNB-Gabe im Abstand von 8 Stunden 5 mg Oxipurinol-Na, das in 0,5 ml Glucoselösung aufgelöst war, oral über eine Schlundsonde verabreicht. Eine weitere Gruppe von 10 Tieren erhielt lediglich 0,25 ml der 30%igen Ethanollösung rektal instilliert, und weitere 10 Tiere dienten als Kontrolle.
Der Darm (Rectum) der mit TNB behandelten Tiere zeigte eine chronisch-rezidivierende Colitis Grad II - III. Bei einigen Tieren wurden inkomplette Erosionen, insbesondere in den über den Lymphfollikeln gelegenen Stellen des Oberflächenepithels, sehr dichte Infiltrate in der Submukosa und reichlich perivaskulär gelegene Mastzellen im umgebenden Fettgewebe, beobachtet. Die mit TNB und Oxipurinol-Na behandelten Tiere zeigten deutlich geringer ausgeprägte Entzündungemerkmale (Grad I): eine geringfügige Vermehrung von Lymphozyten und Mastzellen sowie ein geringes Ödem.

[2] = tested on: durch TNB (Trinitrobenzoesulfonsäure) ausgelösten Colitis der Ratte; assay: Biochemical proof of the anti-inflammatory effect in TNB-induced colitis of the rat (purine nucleotides, TBA-RS in gut samples); assay type: in vivo; conditions: 21. Tag, 5 mg oral every 8 h, day 3-21
Method: as §1
Bei den im Beispiel 13 charakterisierten Tiergruppen wurden am 21. Tag Darmproben auf den Gehalt an Purinnukleotiden und Lipidperoxydationsprodukten (Thiobarbitursäure-reaktive Substanzen: TBA-RS) hin untersucht.
Die nach TNB-Applikation erhöhte Konzentration von TBA-RS wird durch Oxipurinol-Na-Zugabe auf46 % gesenkt und liegt damit sogar noch unter den Kontrollwerten. Danach verhindert Oxipurinol-Na den durch TNB ausgelösten Abfall der Adenin-'und Guaninnukleotide und die gesteigerte Lipidperoxydation.

[3] = pH of aqueous solution; assay type: physicochemical; conditions: 5%ige wäßrige Lösung
Text: Aus der DE-OS 37 07 999 ist bekannt, Oxipurinol zur Verminderung von Zellschäden nach der Ischämie und vor der Reperfusion zu verwenden, und zwar durch intravenöse Verabreichung eines Alkalimetallsalzes, insbesondere des Natriumsalzes. Aus den Beispielen geht jedoch hervor, daß nicht das reine Natriumsalz verwendet wurde, sondern ein Gemisch aus Salz und überschüssiger Natronlauge. Dies ergibt sich vor allem aus den pH-werten der ca. 1 bis 2%-igen Lösungen von 11,5 bzw. 12,0. Das jetzt erstmals von der Anmelderin in reiner und kristalliner Form hergestellte Natriumsalz besitzt in 5%-iger wäßriger Lösung einen pH-wert von 9,7 und kristallisiert als Monohydrat aus.
(§2) Bei diesem Natrium-Salz handelt es sich um Mono-Natriumoxipurinol-Monohydrat. Das Salz ist weiß und kristallisiert in feinen Nadeln. In wäßriger Lösung reagiert es alkalisch, eine 5%ige Lösung besitzt einen pH-Wert von 9,7. Seine Löslichkeit beträgt: in Wasser bei 25°C 15,8 g/l 0°C 7,2 g/l in Methanol/Wasser (3:1 Vol.) bei 25°C ca. 2,0 g/l

[4] = Solubility; assay type: physicochemical; conditions: read-out: Löslichkeit
Method: as §2

[5] = Stability of the solid salt (air, drying temperature); assay type: physicochemical
Method: Das Salz ist luftbeständig und verträgt Trockentemperaturen bis etwa 70°C. Aus seiner heißen Lösung läßt sich mit verdünnter Salzsäure (10%ig) Oxipurinol fast quantitativ ausfällen.

[6] = general statement, no solvent or temperature given; cited from earlier work

SMILES	Entzündungsmerkmale / Colitis Grad (Rectum, histologisch) [1]	Gehalte an Adenin- und Guaninnukleotiden (Darmproben) versus Ethanol- und Kontrollgruppe [2]	pH-Wert [3]	solubility ([4]; methanol/water (3:1 vol.), organic solvent or mixture, in Methanol/Wasser (3:1 Vol.) bei 25°C)	solubility ([4]; water, in Wasser bei 0°C)	solubility ([4]; water, in Wasser bei 25°C)	Luftbeständigkeit [5]	verträgt Trockentemperaturen ([5]; drying)	Löslichkeit (in words) [6]
O=c1[nH]c(=O)c2cn[nH]c2[nH]1 [Oxipurinol-Natrium, Mono-Natriumoxipurinol-Monohydrat]	Grad I	unterschieden sich nicht signifikant	9,7	~2 mg/mL (≈ 13.1 mM)	7.2 mg/mL (≈ 47.3 mM)	15.8 mg/mL (≈ 104 mM)	luftbeständig	≤ 70 °C	–
O=c1[nH]c(=O)c2c[nH]nc2[nH]1 [Oxipurinol]	–	–	–	–	–	–	–	–	sehr schwer löslich

Source: patent publication EP0445156B1, “AGENTS FOR TREATING CHRONIC INFLAMMATORY DISEASES OF THE INTESTINES” (HENNING BERLIN GmbH CHEMIE- UND PHARMAWERK, priority 1988, dated 1990)
